Laboratory results taken from PubChem BioAssay (NCI).
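Assay format: 96-well plates, 48-hour exposure. TGI is the concentration that stops growth completely.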

Columns and labels:
Assay in all cases: DTP human tumour cell line panel, 48 h
[1] = test system: SK-OV-3 ovarian
[2] = test system: NCI-H23 lung
[3] = test system: MDA-MB-435
[4] = test system: HCT-15 colon
[5] = test system: 786-0 renal
[6] = test system: TK-10 renal
[7] = test system: HOP-92 NSCLC
[8] = test system: SR leukemia
[9] = test system: ACHN renal
[10] = test system: UACC-62 melanoma
[11] = test system: MALME-3M melanoma
[12] = test system: NCI-H226 lung
[13] = test system: SNB-75 CNS
[14] = test system: SNB-19 CNS
[15] = test system: HCC-2998 colon
[16] = test system: A549 NSCLC
[17] = test system: HT29 colon
[18] = test system: CCRF-CEM leukemia
[19] = test system: CAKI-1 renal
[20] = test system: UACC-257 melanoma

Row | Structure (SMILES) | TGI [1] | TGI [2] | TGI [3] | TGI [4] | TGI [5] | TGI [6] | TGI [7] | TGI [8] | TGI [9] | TGI [10] | TGI [11] | TGI [12] | TGI [13] | TGI [14] | TGI [15] | TGI [16] | TGI [17] | TGI [18] | TGI [19] | TGI [20]
1 | O=C(O)c1ccccc1/C=N\N(CCO)C1=NCCN1 | > 100 µM | > 100 µM | > 100 µM | > 100 µM | > 100 µM | > 100 µM | > 100 µM | > 100 µM | > 100 µM | > 100 µM | > 100 µM | > 100 µM | > 100 µM | > 100 µM | > 100 µM | > 100 µM | > 100 µM | > 100 µM | – | –
2 | Cc1ccc(/C=C2\CCS(=O)(=O)c3ccccc3C2=O)cc1 | 46.3 µM | 29.6 µM | 55.2 µM | 27.7 µM | 34 µM | 30.9 µM | 31 µM | 63.7 µM | 28.6 µM | 33.4 µM | – | 36.2 µM | 32.9 µM | 36.5 µM | 28.9 µM | > 100 µM | 31.9 µM | 62.3 µM | 33.2 µM | 35.1 µM
3 | COc1c(-c2ccc(F)cc2)oc2c(CC(=O)O)cccc2c1=O | > 100 µM | > 100 µM | > 100 µM | – | > 100 µM | > 100 µM | – | > 100 µM | > 100 µM | > 100 µM | > 100 µM | > 100 µM | – | – | > 100 µM | > 100 µM | > 100 µM | > 100 µM | 71.5 µM | > 100 µM
4 | C=C1C(=O)O[C@H]2C1C[C@H](O)/C(C)=C/CC[C@@]1(C)O[C@H]21 (some centres not stated) | > 100 µM | 37.5 µM | 37.3 µM | 31.1 µM | 32.8 µM | 29.9 µM | 33 µM | 30.9 µM | 22 µM | 22.9 µM | 19.5 µM | – | > 100 µM | > 100 µM | 27.5 µM | > 100 µM | 50.9 µM | 13.6 µM | 28.4 µM | 34.5 µM
5 | CCCCCCC(O)C(=O)OC1C2C(CC1(C)C)C(O)C13OC1C(O)C1(CO1)[C@@]23C (some centres not stated) | > 100 µM | > 100 µM | > 100 µM | > 100 µM | 86.8 µM | > 100 µM | – | > 100 µM | – | > 100 µM | > 100 µM | – | 31.2 µM | > 100 µM | – | > 100 µM | – | > 100 µM | > 100 µM | > 100 µM
6 | CC(Cn1c(=O)oc2ccccc21)N(C)C (configuration not stated) | > 100 µM | > 100 µM | > 100 µM | > 100 µM | > 100 µM | > 100 µM | – | > 100 µM | > 100 µM | > 100 µM | > 100 µM | > 100 µM | > 100 µM | > 100 µM | – | – | > 100 µM | > 100 µM | > 100 µM | > 100 µM
7 | O=c1[nH]nc(-c2ccccc2)n1-n1cccc1 | > 100 µM | – | > 100 µM | > 100 µM | > 100 µM | > 100 µM | – | 97 µM | > 100 µM | > 100 µM | > 100 µM | > 100 µM | > 100 µM | > 100 µM | > 100 µM | > 100 µM | > 100 µM | > 100 µM | > 100 µM | > 100 µM
